Reference: patent US9328141B2, “Polypeptides for the treatment or prevention of cancer and uses thereof” (WUHAN KATYGEN PHARMACEUTICALS, INC., priority 2010, dated 2016)

Test system: colon tumor 26
Test: Anti-cancer effect in vivo, transplanted colon tumor 26 in mice
Parameters: species or system BALB/c male mouse
Conditions: cisplatin 1 mg/kg ipx 5, Day 11
Description: The tumors were excised and weighed.
Combine index (CI), CI=AB/(A×B). AB is the T/C of the combined effects of two drugs, A, B either is the T/C of the effect of one drug (when CI<1, these two drugs have combination).

SMILES: N.N.[Cl][Pt][Cl] [Cisplatin, cisplatin]
- The inhibitive rate: 44%
- tumor weight x ± s: 1.39 ± 0.39 g
